Source: patent publication US4690940A, “Anti-hypertensive agents” (University of Miami, priority 1979, dated 1987)
Non-standard residues stand in square brackets, D forms with d. Residues, ends and D or L forms follow the SMILES beside them. No end group written: not given here. pGlu = O=C1CC[C@@H](C(=O)O)N1

What was measured:
[1] = tested on: ACE; conditions: competitive substrates; cited from earlier work
[2] = tested on: ACE purified from human urine; test: ACE activity assay (hydrolysis of Benzoyl-GlyHisLeu), I50 determination; type: biochemical; conditions: in vitro, pH 8.0, 37° C
Experimental: These factors include the source of enzyme, its purity, the substrate used and its concentration, and the composition of the assay buffer. All I50 data reported herein have been performed with the same assay system and same enzyme (human urinary ACE) and with an approximately 1/2Km level of substrate and are therefore internally consistent.
ACE activity assay. […] To initiate the assay, 40 μl of enzyme and 10 μl of water or inhibitor dissolved in water were preincubated for five minutes at 37° C. […] To terminate the reaction, 1 ml of 0.1M HCl was added, following which 1 ml of ethyl acetate was added. The mixture was agitated on a rotary mixer and centrifuged briefly to separate the phases.
An aliquot, 500 μl, of the ethyl acetate layer was transferred to a liquid scintillation vial containing 10 ml of Riafluor, trademark New England Nuclear Corporation, Boston, Massachusetts. For determination of I50 values, enzyme activity in the presence of inhibitor at a series of different concentrations was compared to activity in the absence of inhibitor.

[3] = tested on: ACE; conditions: disulfide formed by dimerization of SQ 14,225; believed; cited from earlier work
[4] = tested on: Blood Pressure Response to 400 ng/kg of Angiotensin I; test: Intravenous effectiveness: blood pressure response to angiotensin I in anesthetized rats; type: in vivo, rat; conditions: 400 ng/kg angiotensin I, -5 minutes
Experimental: (§1) Rats (210-290 g body weight) were fasted overnight and then anesthetized with intraperitoneal pentobarbital, 50-60 mg/kg. Tracheostomy was performed and the animals were ventilated mechanically. A cannula was inserted into a femoral vein for injection of angiotensin I, and a second cannula was inserted into a common carotid artery for direct measurement of arterial blood pressure. Heparin, 1,000 units, was injected via the femoral vein to prevent coagulation. Blood pressure was measured with a pressure transducer connected to a polygraph. The rats were injected with 400 ng/kg of angiotensin I in 20 μl of 0.9 g % NaCl; an amount of angiotensin I sufficient to raise mean arterial blood pressure by 39 mm Hg. […] At timed intervals, the effects of 400 ng/kg of angiotensin I on mean arterial blood pressure were tested.
At time intervals, the effects of angiotensin I, 400 ng/kg, on mean arterial blood pressure were tested.

[5] = tested on: Blood Pressure Response to 400 ng/kg of Angiotensin I; test: Oral effectiveness: blood pressure response to angiotensin I in anesthetized rats; type: in vivo, rat; conditions: 400 ng/kg angiotensin I, before drug
Experimental: as §1

| Compound | Km relative to angiotensin I [1] | IC50 [2] | other results |
| --- | --- | --- | --- |
| C[C@H](NC(=O)[C@H](Cc1c[nH]c2ccccc12)NC(=O)[C@H](CCCCN)NC(=O)[C@@H]1CCC(=O)N1)C(=O)N1CCC[C@H]1C(=O)O [BPP5a, <GluLysTrpAlaPro] ([pGlu]KWAP-OH) | a lower Km than angiotensin I |  |  |
| C[C@H](CSC(=O)[C@H](Cc1ccccc1)NC(=O)[C@H](CCCCNC(=O)OC(C)(C)C)NC(=O)C1CCCC1)C(=O)N1CCC[C@H]1C(=O)O [Example 17] |  | 25 nM |  |
| C[C@H](CSC(=O)[C@H](Cc1ccccc1)NC(=O)[C@H](CCCCN)NC(=O)C1CCCC1)C(=O)N1CCC[C@H]1C(=O)O [Example 18, N^α -[3-(N^α -cyclopentylcarbonyl-L-lysyl-L-phenylalanylthio)2-D-methylpropanoyl]-L-proline] |  | 15 nM |  |
| C[C@H](CSSC[C@@H](C)C(=O)N1CCC[C@H]1C(=O)O)C(=O)N1CCC[C@H]1C(=O)O [disulfide] |  |  | inhibitory activity of dimer [3]: largely inactive as an inhibitor |
| DRVYIHPFHL [angiotensin I] |  |  | rise of mean arterial blood pressure by angiotensin I [4]: 39 mm Hg; rise of mean arterial blood pressure by angiotensin I [5]: 39 mm Hg |
| RPPGFSPFR [bradykinin] | a lower Km than angiotensin I |  |  |
